Test results as given in patent US20260294890A1, “LONG-TERM PREVENTION AND/OR TREATMENT OF A DISEASE BY SLO-1 INHIBITORS” (Elanco Animal Health GmbH, priority 2023, published 2026).

Assay: Assay 1: half-life and plasma clearance upon intravenous administration to beagle dogs
Assay type: in vivo
Details: iv dose up to 0.3 mg/kg, Phoenix PK/PD (Example 1: internal tool); for clearance / half-life: dog, geometric mean; for half-life: read-out: Half-life (h/Form) iv, geometric mean (converted)
Description: Assay 1: Determination of Half-Life and Plasma Clearance of Compounds of the Invention Upon Administration to Beagle Dogs
Compounds according to the invention were administered as an intravenous (iv) dose (up to 0.3 mg/kg) to beagle dogs (minimum n=3). Blood samples were collected from these beagle dogs up to 168 h after intravenous administration and up to 3024 h after subcutaneous administration. A portion of each whole blood sample was processed to plasma. Compound concentrations were determined in plasma using LCMS/MS. Phoenix™ Pharmacokinetic and Pharmacodynamic (PK/PD) was used to determine half-life and plasma clearance values. Only for Example 1, an internal tool available to the inventors was used to determine the half-life and plasma clearance values.

Molecule	clearance (plasma) [mL/min/kg]	half-life (plasma) [min]	Plasma Clearance, geometric mean [L/h/kg]	Half-life (h/Form) iv, geometric mean (plasma) [h]
CCc1c(C(=O)N[C@H]2CCOc3ccccc32)cnc2c(-c3cc(F)cc(F)c3F)c(F)ccc12 [Example 1, N-[(4S)-3,4-Dihydro-2H-chromen-4-yl]-4-ethyl-7-fluoro-8-(2,3,5-trifluorophenyl)quinoline-3-carboxamide]	10	3120		
O=C(N[C@H]1CCOc2ccccc21)c1cnc2c(-c3cc(Cl)cc(Cl)c3)c(F)ccc2c1N1CC(F)C1 [Example 5, (S)—N-(chroman-4-yl)-8-(3,5-dichlorophenyl)-7-fluoro-4-(3-fluoroazetidin-1-yl)quinoline-3-carboxamide]	1.17	9620		
Cc1nn2c(C(C)C)c(C(=O)N[C@H]3CCOc4ccccc43)cnc2c1-c1ccc(F)c(F)c1 [Example 3, (S)—N-(chroman-4-yl)-3-(3,4-difluorophenyl)-7-isopropyl-2-methylpyrazolo[1,5-a]pyrimidine-6-carboxamide]	3	2250		
Cc1nn2c(C(C)C)c(C(=O)N[C@H]3CCc4ccccc43)cnc2c1-c1cc(Cl)c(F)c(Cl)c1 [Example 2, (S)-3-(3,5-dichloro-4-fluorophenyl)-N-(2,3-dihydro-1H-inden-1-yl)-7-isopropyl-2-methylpyrazolo[1,5-a]pyrimidine-6-carboxamide]	2.33	1140		
(S)—N-(2,3-Dihydro-1H-inden-1-yl)-3-(3-fluorophenyl)-7-isopropyl-2-methylpyrazolo[1,5-a]pyrimidine-6-carboxamide [Example 13]			0.56	45.43

Continued, values first:

clearance (plasma) [mL/min/kg]	half-life (plasma) [min]	Plasma Clearance, geometric mean [L/h/kg]	Half-life (h/Form) iv, geometric mean (plasma) [h]	Molecule
3	2610			O=C(N[C@H]1CCOc2ccccc21)c1cnc2c(-c3cc(F)cc(F)c3F)c(F)ccc2c1C1CCOCC1 [Example 14]
5	2870			O=C(N[C@H]1CCOc2ccccc21)c1cnc2c(-c3cc(F)cc(F)c3F)cccc2c1C1COC1 [Example 11, (S)—N-(chroman-4-yl)-4-(oxetan-3-yl)-8-(2,3,5-trifluorophenyl)quinoline-3-carboxamide]
11.5	2620			O=C(N[C@H]1CCOc2ccccc21)c1cnc2c(-c3cc(F)cc(F)c3F)c(F)ccc2c1C1CS(=O)(=O)C1 [Example 8, N-[(4S)-3,4-dihydro-2H-chromen-4-yl]-4-(1,1-dioxidothietan-3-yl)-7-fluoro-8-(2,3,5-trifluorophenyl)quinoline-3-carboxamide]
17	1290			O=C(N[C@H]1CCOc2ccccc21)c1cnc2c(-c3cc(F)cc(F)c3F)cccc2c1C1CCOCC1 [Example 12, N-[(4S)-3,4-Dihydro-2H-chromen-4-yl]-4-(tetrahydro-2H-pyran-4-yl)-8-(2,3,5-trifluorophenyl)quinoline-3-carboxamide]
6.17	1480			Cc1nn2c(C(C)C)c(C(=O)N[C@H]3CCOc4ccccc43)cnc2c1-c1c(F)cccc1Cl [Example 10, (S)-3-(2-chloro-6-fluorophenyl)-N-(chroman-4-yl)-7-isopropyl-2-methylpyrazolo[1,5-a]pyrimidine-6-carboxamide]
